Laboratory results taken from US20180200257A1, “METHODS FOR THE TREATMENT OF INFLAMMATORY DISORDERS” (Galapagos NV, priority 2015, published 2018).

Tested on: subjects with moderately to severely active RA who have an inadequate response to methotrexate (MTX)
Assay: Study 1 (add-on to MTX) - Aspartate Aminotransferase (AST) levels
Format: in vivo, human
Protocol: Double-blind, placebo-controlled add on study in subjects with moderately to severely active RA who have an inadequate response to methotrexate (MTX) (oral or parenteral).
595 subjects randomized to one of 6 dose regimens of Compound 1 (dosed as [Compound 1:HCl:3H2O]) (3 dose levels administered either once or twice daily) or placebo on top of each subject's stable dose of MTX.
Compound 1 (dosed as [Compound 1:HCl:3H2O]) is dosed for twelve weeks once daily (q.d.) (50 mg, 100 mg or 200 mg) or twice daily (b.i.d.) (25 mg, 50 mg or 100 mg); or placebo.
At Week 12, the subjects on placebo who have not achieved 20% improvement in swollen joint count (SJC66) and tender joint count (TJC68) are re-randomized automatically to receive Compound 1 (dosed as a [Compound 1:HCl:3H2O]) either at 100 mg q.d. or 50 mg b.i.d. doses in a blinded fashion; subjects on 50 mg q.d. who have not achieved 20% improvement in SJC66 and TJC68 will be assigned to 100 mg q.d. and subjects on 25 mg b.i.d. that have not achieved a 20% improvement in SJC66 and TJC68 will be assigned to 50 mg b.i.d. Subjects who switch treatment at week 12 are handled as if they discontinued at week 12 for the purpose of statistical analysis, whereas subjects in the other groups will maintain their randomized treatment until Week 24.
AST levels determination is available at Quest Diagnostics, Clinical Trials, Quest House, 125-135 Staines Road, Hounslow, Middlesex, TW3 3JB, United Kingdom under Catalogue n#84450. For Study 3, the data are obtained at BARC Europe, 3B,Industrie Park, Zwijnaarde, B-9052 Ghent, Belgium.
AST catalyzes the transamination of aspartate and 2-oxoglutarate, forming L-glutamate and oxalacetate. The oxalacetate is reduced to L-malate by malate dehydrogenase, whilst NADH is converted to NAD+, measured spectrophotometrically. Guidelines for the AST value have been issued by the association for Clinical Biochemistry and Laboratory Medicine, 130-132 Tooley Street LONDON SE1 2TU, united Kingdom, wherein the AST value should be below 34 U/l in Female and below 45 U/L in male. As disclosed in the respective study protocols for Study 1 or 2, at week 12, depending on the outcome of their treatment, the subjects may be continued in their initial treatment course, or reassigned to another treatment group in a randomized blinded fashion until week 24. Therefore, the number of subjects (N) for the period of either 12 weeks, or 24 weeks is provided to reflect this redistribution at week 12.

[1] = 12 weeks results, 50 mg q.d., week 1
[2] = 12 weeks results, 50 mg q.d., week 2
[3] = 12 weeks results, 50 mg q.d., week 4
[4] = 12 weeks results, 50 mg q.d., week 8
[5] = 12 weeks results, 50 mg q.d., week 12
[6] = 12 weeks results, 100 mg q.d., week 1
[7] = 12 weeks results, 100 mg q.d., week 2
[8] = 12 weeks results, 100 mg q.d., week 4
[9] = 12 weeks results, 100 mg q.d., week 8
[10] = 12 weeks results, 100 mg q.d., week 12
[11] = 12 weeks results, 200 mg q.d., week 1
[12] = 12 weeks results, 200 mg q.d., week 2
[13] = 12 weeks results, 200 mg q.d., week 4
[14] = 12 weeks results, 200 mg q.d., week 8
[15] = 12 weeks results, 200 mg q.d., week 12
[16] = 12 weeks results, 2 × 25 mg b.i.d., week 1
[17] = 12 weeks results, 2 × 25 mg b.i.d., week 2
[18] = 12 weeks results, 2 × 25 mg b.i.d., week 4
[19] = 12 weeks results, 2 × 25 mg b.i.d., week 8
[20] = 12 weeks results, 2 × 25 mg b.i.d., week 12
[21] = 12 weeks results, 2 × 50 mg b.i.d., week 1
[22] = 12 weeks results, 2 × 50 mg b.i.d., week 2
[23] = 12 weeks results, 2 × 50 mg b.i.d., week 4
[24] = 12 weeks results, 2 × 50 mg b.i.d., week 8
[25] = 12 weeks results, 2 × 50 mg b.i.d., week 12
[26] = 12 weeks results, 2 × 100 mg b.i.d., week 1
[27] = 12 weeks results, 2 × 100 mg b.i.d., week 2
[28] = 12 weeks results, 2 × 100 mg b.i.d., week 4
[29] = 12 weeks results, 2 × 100 mg b.i.d., week 8
[30] = 12 weeks results, 2 × 100 mg b.i.d., week 12
[31] = 24 weeks results, continued 25 mg b.i.d., week 1
[32] = 24 weeks results, continued 25 mg b.i.d., week 2
[33] = 24 weeks results, continued 25 mg b.i.d., week 4
[34] = 24 weeks results, continued 25 mg b.i.d., week 8
[35] = 24 weeks results, continued 25 mg b.i.d., week 12
[36] = 24 weeks results, continued 25 mg b.i.d., week 16
[37] = 24 weeks results, continued 25 mg b.i.d., week 20
[38] = 24 weeks results, continued 25 mg b.i.d., week 24
[39] = 24 weeks results, continued 50 mg b.i.d., week 1
[40] = 24 weeks results, continued 50 mg b.i.d., week 2
[41] = 24 weeks results, continued 50 mg b.i.d., week 4
[42] = 24 weeks results, continued 50 mg b.i.d., week 8
[43] = 24 weeks results, continued 50 mg b.i.d., week 12
[44] = 24 weeks results, continued 50 mg b.i.d., week 16
[45] = 24 weeks results, continued 50 mg b.i.d., week 20
[46] = 24 weeks results, continued 50 mg b.i.d., week 24
[47] = 24 weeks results, continued 50 mg q.d., week 1
[48] = 24 weeks results, continued 50 mg q.d., week 2
[49] = 24 weeks results, continued 50 mg q.d., week 4
[50] = 24 weeks results, continued 50 mg q.d., week 8

O=C(Nc1nc2cccc(-c3ccc(CN4CCS(=O)(=O)CC4)cc3)n2n1)C1CC1 [Compound 1, cyclopropanecarboxylic acid {5-[4-(1,1-dioxo-thiomorpholin-4-ylmethyl)-phenyl]-[1,2,4]triazolo[1,5-a]pyridin-2-yl}-amide]
Study 1 - AST Mean CFB [1]: 1 IU/L
Study 1 - AST Mean percentage CFB [1]: 7%
Study 1 - AST Mean CFB [2]: 0 IU/L
Study 1 - AST Mean percentage CFB [2]: 5%
Study 1 - AST Mean CFB [3]: 0 IU/L
Study 1 - AST Mean percentage CFB [3]: 5%
Study 1 - AST Mean CFB [4]: 0 IU/L
Study 1 - AST Mean percentage CFB [4]: 7%
Study 1 - AST Mean CFB [5]: 1 IU/L
Study 1 - AST Mean percentage CFB [5]: 10%
Study 1 - AST Mean CFB [6]: 3 IU/L
Study 1 - AST Mean percentage CFB [6]: 14%
Study 1 - AST Mean CFB [7]: 1 IU/L
Study 1 - AST Mean percentage CFB [7]: 9%
Study 1 - AST Mean CFB [8]: 2 IU/L
Study 1 - AST Mean percentage CFB [8]: 11%
Study 1 - AST Mean CFB [9]: 3 IU/L
Study 1 - AST Mean percentage CFB [9]: 17%
Study 1 - AST Mean CFB [10]: 2 IU/L
Study 1 - AST Mean percentage CFB [10]: 16%
Study 1 - AST Mean CFB [11]: 3 IU/L
Study 1 - AST Mean percentage CFB [11]: 16%
Study 1 - AST Mean CFB [12]: 2 IU/L
Study 1 - AST Mean percentage CFB [12]: 13%
Study 1 - AST Mean CFB [13]: 3 IU/L
Study 1 - AST Mean percentage CFB [13]: 19%
Study 1 - AST Mean CFB [14]: 5 IU/L
Study 1 - AST Mean percentage CFB [14]: 27%
Study 1 - AST Mean CFB [15]: 5 IU/L
Study 1 - AST Mean percentage CFB [15]: 29%
Study 1 - AST Mean CFB [16]: 0 IU/L
Study 1 - AST Mean percentage CFB [16]: 3%
Study 1 - AST Mean CFB [17]: 0 IU/L
Study 1 - AST Mean percentage CFB [17]: 6%
Study 1 - AST Mean CFB [18]: 0 IU/L
Study 1 - AST Mean percentage CFB [18]: 6%
Study 1 - AST Mean CFB [19]: 0 IU/L
Study 1 - AST Mean percentage CFB [19]: 10%
Study 1 - AST Mean CFB [20]: 2 IU/L
Study 1 - AST Mean percentage CFB [20]: 14%
Study 1 - AST Mean CFB [21]: 1 IU/L
Study 1 - AST Mean percentage CFB [21]: 6%
Study 1 - AST Mean CFB [22]: 0 IU/L
Study 1 - AST Mean percentage CFB [22]: 6%
Study 1 - AST Mean CFB [23]: 2 IU/L
Study 1 - AST Mean percentage CFB [23]: 14%
Study 1 - AST Mean CFB [24]: 2 IU/L
Study 1 - AST Mean percentage CFB [24]: 14%
Study 1 - AST Mean CFB [25]: 2 IU/L
Study 1 - AST Mean percentage CFB [25]: 17%
Study 1 - AST Mean CFB [26]: 1 IU/L
Study 1 - AST Mean percentage CFB [26]: 10%
Study 1 - AST Mean CFB [27]: 2 IU/L
Study 1 - AST Mean percentage CFB [27]: 14%
Study 1 - AST Mean CFB [28]: 3 IU/L
Study 1 - AST Mean percentage CFB [28]: 19%
Study 1 - AST Mean CFB [29]: 2 IU/L
Study 1 - AST Mean percentage CFB [29]: 17%
Study 1 - AST Mean CFB [30]: 3 IU/L
Study 1 - AST Mean percentage CFB [30]: 20%
Study 1 - AST Mean CFB [31]: 0.7 IU/L
Study 1 - AST Mean percentage CFB [31]: 6.7%
Study 1 - AST Mean CFB [32]: 0.7 IU/L
Study 1 - AST Mean percentage CFB [32]: 7.1%
Study 1 - AST Mean CFB [33]: 1.0 IU/L
Study 1 - AST Mean percentage CFB [33]: 8.6%
Study 1 - AST Mean CFB [34]: 1.6 IU/L
Study 1 - AST Mean percentage CFB [34]: 14.0%
Study 1 - AST Mean CFB [35]: 2.2 IU/L
Study 1 - AST Mean percentage CFB [35]: 16.4%
Study 1 - AST Mean CFB [36]: 1.4 IU/L
Study 1 - AST Mean percentage CFB [36]: 12.6%
Study 1 - AST Mean CFB [37]: 1.1 IU/L
Study 1 - AST Mean percentage CFB [37]: 10.8%
Study 1 - AST Mean CFB [38]: 1.7 IU/L
Study 1 - AST Mean percentage CFB [38]: 14.0%
Study 1 - AST Mean CFB [39]: 0.5 IU/L
Study 1 - AST Mean percentage CFB [39]: 5.7%
Study 1 - AST Mean CFB [40]: 0.4 IU/L
Study 1 - AST Mean percentage CFB [40]: 5.5%
Study 1 - AST Mean CFB [41]: 1.8 IU/L
Study 1 - AST Mean percentage CFB [41]: 14.4%
Study 1 - AST Mean CFB [42]: 1.7 IU/L
Study 1 - AST Mean percentage CFB [42]: 14.0%
Study 1 - AST Mean CFB [43]: 2.4 IU/L
Study 1 - AST Mean percentage CFB [43]: 17.1%
Study 1 - AST Mean CFB [44]: 1.9 IU/L
Study 1 - AST Mean percentage CFB [44]: 13.7%
Study 1 - AST Mean CFB [45]: 3.4 IU/L
Study 1 - AST Mean percentage CFB [45]: 20.7%
Study 1 - AST Mean CFB [46]: 1.5 IU/L
Study 1 - AST Mean percentage CFB [46]: 11.1%
Study 1 - AST Mean CFB [47]: 0.8 IU/L
Study 1 - AST Mean percentage CFB [47]: 7.5%
Study 1 - AST Mean CFB [48]: −0.2 IU/L
Study 1 - AST Mean percentage CFB [48]: 5.7%
Study 1 - AST Mean CFB [49]: −0.4 IU/L
Study 1 - AST Mean percentage CFB [49]: 5.2%
Study 1 - AST Mean CFB [50]: 0.4 IU/L
Study 1 - AST Mean percentage CFB [50]: 9.0%
